Assay results published in the kinase profiling compilation of Christmann-Franck et al. (2016).

What was measured:
Assay in all cases: radiometric filter-binding kinase assay, Kinase HotSpot
Details in all cases: compound 0.5 µM; ATP 10 µM
ADRBK1 (human) = ADRBK1 (human) (UniProt P25098)
AKT1 (human) = AKT1 (human) (UniProt P31749)
CDC42BPA (human) = CDC42BPA (human) (UniProt Q5VT25)
CDK2 CCNE1 (human) = CDK2 CCNE1 (human) (UniProt P24941+P24864)
CDK3 CCNE1 (human) = CDK3 CCNE1 (human) (UniProt Q00526+P24864)
CDK7 CCNH MNAT1 (human) = CDK7 CCNH MNAT1 (human) (UniProt P50613+P51948+P51946)
CHEK1 (human) = CHEK1 (human) (UniProt O14757)
CSNK1G2 (human) = CSNK1G2 (human) (UniProt P78368)
EPHA2 (human) = EPHA2 (human) (UniProt P29317)
EPHA4 (human) = EPHA4 (human) (UniProt P54764)
EPHA8 (human) = EPHA8 (human) (UniProt P29322)
FGFR1 (human) = FGFR1 (human) (UniProt P11362)
FYN (human) = FYN (human) (UniProt P06241)
GSK3A (human) = GSK3A (human) (UniProt P49840)
HIPK1 (human) = HIPK1 (human) (UniProt Q86Z02)
HIPK2 (human) = HIPK2 (human) (UniProt Q9H2X6)
ITK (human) = ITK (human) (UniProt Q08881)
LTK (human) = LTK (human) (UniProt P29376)
MAP2K1 (human) = MAP2K1 (human) (UniProt Q02750)
MAP4K4 (human) = MAP4K4 (human) (UniProt O95819)
MST4 (human) = MST4 (human) (UniProt Q9P289)
MYLK (human) = MYLK (human) (UniProt Q15746)
NUAK2 (human) = NUAK2 (human) (UniProt Q9H093)
PAK7 (human) = PAK7 (human) (UniProt Q9P286)
PKN2 (human) = PKN2 (human) (UniProt Q16513)
PRKACA (human) = PRKACA (human) (UniProt P17612)
PRKCD (human) = PRKCD (human) (UniProt Q05655)
PRKD1 (human) = PRKD1 (human) (UniProt Q15139)
PRKD2 (human) = PRKD2 (human) (UniProt Q9BZL6)
PRKD3 (human) = PRKD3 (human) (UniProt O94806)
PTK6 (human) = PTK6 (human) (UniProt Q13882)
RIPK2 (human) = RIPK2 (human) (UniProt O43353)
RPS6KB1 (human) = RPS6KB1 (human) (UniProt P23443)
SGK3 (human) = SGK3 (human) (UniProt Q96BR1)
STK10 (human) = STK10 (human) (UniProt O94804)
STK11 (human) = STK11 (human) (UniProt Q15831)
STK16 (human) = STK16 (human) (UniProt O75716)
STK17A (human) = STK17A (human) (UniProt Q9UEE5)
STK25 (human) = STK25 (human) (UniProt O00506)
TAOK2 (human) = TAOK2 (human) (UniProt Q9UL54)
TAOK3 (human) = TAOK3 (human) (UniProt Q9H2K8)
YES1 (human) = YES1 (human) (UniProt P07947)

RPS6KB1 (human), sequence (P23443 whole entry, looked up): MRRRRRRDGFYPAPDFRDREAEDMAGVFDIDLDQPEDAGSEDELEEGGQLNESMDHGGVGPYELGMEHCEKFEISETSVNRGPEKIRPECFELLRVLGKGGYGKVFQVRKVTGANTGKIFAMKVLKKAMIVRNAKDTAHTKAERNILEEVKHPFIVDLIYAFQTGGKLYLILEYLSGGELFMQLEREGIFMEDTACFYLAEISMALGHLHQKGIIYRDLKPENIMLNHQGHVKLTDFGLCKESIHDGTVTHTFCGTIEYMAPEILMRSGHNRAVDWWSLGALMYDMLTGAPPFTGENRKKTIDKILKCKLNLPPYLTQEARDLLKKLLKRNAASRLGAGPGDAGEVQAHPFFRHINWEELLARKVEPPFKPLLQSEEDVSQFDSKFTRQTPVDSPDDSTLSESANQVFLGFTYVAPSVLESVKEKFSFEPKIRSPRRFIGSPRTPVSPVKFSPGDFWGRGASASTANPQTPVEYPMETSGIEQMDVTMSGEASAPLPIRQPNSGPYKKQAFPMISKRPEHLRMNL
HIPK2 (human), sequence (Q9H2X6 whole entry, looked up): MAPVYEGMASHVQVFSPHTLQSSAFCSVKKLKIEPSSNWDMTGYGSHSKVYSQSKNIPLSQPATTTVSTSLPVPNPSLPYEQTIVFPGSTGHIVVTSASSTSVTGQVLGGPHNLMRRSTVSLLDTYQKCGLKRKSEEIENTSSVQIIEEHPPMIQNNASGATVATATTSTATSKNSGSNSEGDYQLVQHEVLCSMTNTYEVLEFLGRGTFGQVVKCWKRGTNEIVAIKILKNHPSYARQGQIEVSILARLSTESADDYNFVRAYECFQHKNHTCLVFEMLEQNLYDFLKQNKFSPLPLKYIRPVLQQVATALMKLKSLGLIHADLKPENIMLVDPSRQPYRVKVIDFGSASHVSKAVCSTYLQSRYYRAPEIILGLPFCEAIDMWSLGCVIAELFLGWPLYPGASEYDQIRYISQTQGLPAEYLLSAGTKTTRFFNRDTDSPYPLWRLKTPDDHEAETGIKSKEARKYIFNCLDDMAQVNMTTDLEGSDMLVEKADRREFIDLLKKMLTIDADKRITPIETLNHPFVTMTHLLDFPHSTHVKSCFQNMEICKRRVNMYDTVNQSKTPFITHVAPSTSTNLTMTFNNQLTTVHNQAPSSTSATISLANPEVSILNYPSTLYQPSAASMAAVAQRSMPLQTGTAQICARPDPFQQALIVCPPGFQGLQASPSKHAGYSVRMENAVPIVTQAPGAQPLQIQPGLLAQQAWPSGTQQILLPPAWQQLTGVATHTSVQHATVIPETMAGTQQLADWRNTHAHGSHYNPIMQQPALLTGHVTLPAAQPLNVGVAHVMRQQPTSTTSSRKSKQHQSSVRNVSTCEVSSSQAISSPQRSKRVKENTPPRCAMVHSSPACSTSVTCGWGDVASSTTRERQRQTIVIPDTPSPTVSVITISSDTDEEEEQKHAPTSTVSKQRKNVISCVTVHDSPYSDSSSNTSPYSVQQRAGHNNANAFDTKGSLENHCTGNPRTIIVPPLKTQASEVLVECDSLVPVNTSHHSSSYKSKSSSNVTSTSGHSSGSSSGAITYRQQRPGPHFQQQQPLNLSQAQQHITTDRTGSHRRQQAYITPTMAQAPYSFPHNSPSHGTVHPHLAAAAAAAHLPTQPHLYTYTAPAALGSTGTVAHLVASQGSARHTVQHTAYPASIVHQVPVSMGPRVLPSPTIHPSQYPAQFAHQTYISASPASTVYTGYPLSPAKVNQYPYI
PAK7 (human), sequence (Q9P286 whole entry, looked up): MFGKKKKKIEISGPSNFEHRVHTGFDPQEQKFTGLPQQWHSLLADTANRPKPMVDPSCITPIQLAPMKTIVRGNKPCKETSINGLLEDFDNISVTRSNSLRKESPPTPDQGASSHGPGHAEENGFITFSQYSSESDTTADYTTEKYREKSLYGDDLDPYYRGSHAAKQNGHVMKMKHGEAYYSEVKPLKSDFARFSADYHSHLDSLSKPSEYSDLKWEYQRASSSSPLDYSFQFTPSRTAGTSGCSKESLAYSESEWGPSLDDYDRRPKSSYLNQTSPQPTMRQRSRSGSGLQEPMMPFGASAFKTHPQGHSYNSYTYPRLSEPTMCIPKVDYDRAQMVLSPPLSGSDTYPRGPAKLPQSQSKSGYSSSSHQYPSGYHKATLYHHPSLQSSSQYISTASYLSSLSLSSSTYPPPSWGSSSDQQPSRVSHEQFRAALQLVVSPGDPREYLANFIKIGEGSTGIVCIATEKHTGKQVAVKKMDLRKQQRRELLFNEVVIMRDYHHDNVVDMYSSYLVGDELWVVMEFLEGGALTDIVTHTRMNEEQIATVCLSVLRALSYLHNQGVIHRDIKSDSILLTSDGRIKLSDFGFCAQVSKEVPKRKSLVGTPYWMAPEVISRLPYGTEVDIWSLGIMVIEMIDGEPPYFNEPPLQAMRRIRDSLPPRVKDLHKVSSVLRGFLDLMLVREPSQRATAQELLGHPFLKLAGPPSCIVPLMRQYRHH
LTK (human), sequence (P29376 whole entry, looked up): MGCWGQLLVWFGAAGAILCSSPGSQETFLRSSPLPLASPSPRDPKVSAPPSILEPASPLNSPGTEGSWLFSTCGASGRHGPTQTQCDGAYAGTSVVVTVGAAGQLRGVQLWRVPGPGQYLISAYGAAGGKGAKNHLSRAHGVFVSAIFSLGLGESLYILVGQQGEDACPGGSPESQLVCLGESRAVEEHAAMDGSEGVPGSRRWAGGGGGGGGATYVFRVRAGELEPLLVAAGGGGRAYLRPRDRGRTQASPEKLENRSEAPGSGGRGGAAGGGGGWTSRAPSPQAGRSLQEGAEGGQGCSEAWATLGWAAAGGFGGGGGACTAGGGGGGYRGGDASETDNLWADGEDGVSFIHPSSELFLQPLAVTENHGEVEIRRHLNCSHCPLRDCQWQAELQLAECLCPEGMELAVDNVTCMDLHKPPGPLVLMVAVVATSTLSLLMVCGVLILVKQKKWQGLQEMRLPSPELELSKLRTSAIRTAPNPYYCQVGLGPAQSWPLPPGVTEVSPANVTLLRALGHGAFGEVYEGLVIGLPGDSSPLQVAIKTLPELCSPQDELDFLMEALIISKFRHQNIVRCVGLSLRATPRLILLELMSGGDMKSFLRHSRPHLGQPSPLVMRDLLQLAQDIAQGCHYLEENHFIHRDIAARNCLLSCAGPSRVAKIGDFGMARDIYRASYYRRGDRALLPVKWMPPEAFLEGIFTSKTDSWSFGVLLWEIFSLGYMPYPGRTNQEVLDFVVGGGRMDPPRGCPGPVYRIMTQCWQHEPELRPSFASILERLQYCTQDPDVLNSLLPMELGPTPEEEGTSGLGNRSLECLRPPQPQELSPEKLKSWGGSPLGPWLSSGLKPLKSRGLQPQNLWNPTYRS
PRKD2 (human), sequence (Q9BZL6 whole entry, looked up): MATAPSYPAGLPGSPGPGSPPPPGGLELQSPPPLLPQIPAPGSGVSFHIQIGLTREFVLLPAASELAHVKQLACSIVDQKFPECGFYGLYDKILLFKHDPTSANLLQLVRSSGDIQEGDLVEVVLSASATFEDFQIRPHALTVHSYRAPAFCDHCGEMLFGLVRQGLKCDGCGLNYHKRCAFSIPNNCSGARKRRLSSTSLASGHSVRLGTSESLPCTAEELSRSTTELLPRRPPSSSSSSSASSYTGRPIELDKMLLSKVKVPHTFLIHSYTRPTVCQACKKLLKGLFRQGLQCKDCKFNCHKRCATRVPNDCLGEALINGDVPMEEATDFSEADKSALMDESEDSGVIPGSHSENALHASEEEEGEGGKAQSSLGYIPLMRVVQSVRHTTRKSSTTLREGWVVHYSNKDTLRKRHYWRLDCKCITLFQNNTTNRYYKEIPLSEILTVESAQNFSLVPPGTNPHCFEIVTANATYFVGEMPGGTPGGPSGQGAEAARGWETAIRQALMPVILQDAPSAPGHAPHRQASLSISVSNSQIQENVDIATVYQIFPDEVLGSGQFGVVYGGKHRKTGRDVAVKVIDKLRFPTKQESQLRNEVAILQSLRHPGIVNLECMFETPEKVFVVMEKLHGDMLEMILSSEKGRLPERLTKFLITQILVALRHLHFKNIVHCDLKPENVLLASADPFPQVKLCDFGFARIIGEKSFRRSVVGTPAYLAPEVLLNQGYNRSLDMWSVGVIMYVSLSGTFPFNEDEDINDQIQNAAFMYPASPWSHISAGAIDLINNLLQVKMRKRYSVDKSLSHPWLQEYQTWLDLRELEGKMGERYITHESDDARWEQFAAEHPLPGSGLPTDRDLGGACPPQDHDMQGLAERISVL
STK25 (human), sequence (O00506 whole entry, looked up): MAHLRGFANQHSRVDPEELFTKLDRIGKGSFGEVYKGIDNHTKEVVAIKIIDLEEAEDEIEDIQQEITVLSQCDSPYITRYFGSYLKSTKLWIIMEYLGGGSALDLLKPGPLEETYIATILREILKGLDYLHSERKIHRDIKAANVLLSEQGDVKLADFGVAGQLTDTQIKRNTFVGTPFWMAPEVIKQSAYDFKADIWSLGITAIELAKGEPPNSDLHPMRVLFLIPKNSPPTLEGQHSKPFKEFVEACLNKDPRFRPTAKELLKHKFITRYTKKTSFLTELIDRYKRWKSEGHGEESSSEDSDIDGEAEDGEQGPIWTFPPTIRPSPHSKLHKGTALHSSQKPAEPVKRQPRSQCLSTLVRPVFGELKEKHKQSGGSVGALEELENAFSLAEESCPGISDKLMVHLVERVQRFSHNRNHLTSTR
MST4 (human), sequence (Q9P289 whole entry, looked up): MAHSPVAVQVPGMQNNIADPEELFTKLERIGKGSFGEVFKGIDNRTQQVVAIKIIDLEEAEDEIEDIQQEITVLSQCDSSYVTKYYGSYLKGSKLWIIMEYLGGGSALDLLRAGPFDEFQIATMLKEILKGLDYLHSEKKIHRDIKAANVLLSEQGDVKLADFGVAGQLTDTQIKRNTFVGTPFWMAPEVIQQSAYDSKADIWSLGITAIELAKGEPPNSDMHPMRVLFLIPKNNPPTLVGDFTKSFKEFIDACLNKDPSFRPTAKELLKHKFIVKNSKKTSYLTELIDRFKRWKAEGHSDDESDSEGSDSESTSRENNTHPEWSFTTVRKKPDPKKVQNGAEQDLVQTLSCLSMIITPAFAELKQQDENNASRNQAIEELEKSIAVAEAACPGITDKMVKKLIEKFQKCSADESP

Question: With `Nc1nccc(-c2c(-c3ccc(F)cc3)ncn2C2CCNCC2)n1` as the molecule, how does the residual activity (ADRBK1 (human)) read?
Answer: 99.7%

Question: And the residual activity (AKT1 (human))?
Answer: 99.9%

Question: And the residual activity (CDC42BPA (human))?
Answer: 101%

Question: What about the residual activity (CDK2 CCNE1 (human)) of the same molecule?
Answer: 92.1%

Question: What about the residual activity (CDK3 CCNE1 (human)) of the same molecule?
Answer: 95.5%

Question: What about the residual activity (CDK7 CCNH MNAT1 (human)) of the same molecule?
Answer: 98.9%

Question: And the residual activity (CHEK1 (human))?
Answer: 99.8%

Question: And the residual activity (CSNK1G2 (human))?
Answer: 119%

Question: And the residual activity (EPHA2 (human))?
Answer: 102%

Question: What about the residual activity (EPHA4 (human)) of the same molecule?
Answer: 99.8%

Question: What about the residual activity (EPHA8 (human)) of the same molecule?
Answer: 101%

Question: What about the residual activity (FGFR1 (human)) of the same molecule?
Answer: 91.2%

Question: What about the residual activity (FYN (human)) of the same molecule?
Answer: 91.1%

Question: And the residual activity (GSK3A (human))?
Answer: 97.5%

Question: And the residual activity (HIPK1 (human))?
Answer: 101%

Question: What about the residual activity (HIPK2 (human)) of the same molecule?
Answer: 106%

Question: And the residual activity (ITK (human))?
Answer: 90.5%

Question: What about the residual activity (LTK (human)) of the same molecule?
Answer: 97.3%

Question: What about the residual activity (MAP2K1 (human)) of the same molecule?
Answer: 98.2%

Question: What about the residual activity (MAP4K4 (human)) of the same molecule?
Answer: 76.3%

Question: And the residual activity (MST4 (human))?
Answer: 98.4%

Question: And the residual activity (MYLK (human))?
Answer: 99.8%

Question: And the residual activity (NUAK2 (human))?
Answer: 122%

Question: What about the residual activity (PAK7 (human)) of the same molecule?
Answer: 101%

Question: And the residual activity (PKN2 (human))?
Answer: 97.1%

Question: And the residual activity (PRKACA (human))?
Answer: 83%

Question: What about the residual activity (PRKCD (human)) of the same molecule?
Answer: 99.8%

Question: What about the residual activity (PRKD1 (human)) of the same molecule?
Answer: 54.6%

Question: What about the residual activity (PRKD2 (human)) of the same molecule?
Answer: 50.4%

Question: And the residual activity (PRKD3 (human))?
Answer: 37.9%

Question: What about the residual activity (PTK6 (human)) of the same molecule?
Answer: 73.4%

Question: And the residual activity (RIPK2 (human))?
Answer: 77.2%

Question: And the residual activity (RPS6KB1 (human))?
Answer: 98.2%

Question: And the residual activity (SGK3 (human))?
Answer: 97.5%

Question: What about the residual activity (STK10 (human)) of the same molecule?
Answer: 90.3%

Question: And the residual activity (STK11 (human))?
Answer: 89.1%

Question: What about the residual activity (STK16 (human)) of the same molecule?
Answer: 108%

Question: What about the residual activity (STK17A (human)) of the same molecule?
Answer: 97.8%

Question: What about the residual activity (STK25 (human)) of the same molecule?
Answer: 99.8%

Question: What about the residual activity (TAOK2 (human)) of the same molecule?
Answer: 98%

Question: What about the residual activity (TAOK3 (human)) of the same molecule?
Answer: 95.3%

Question: And the residual activity (YES1 (human))?
Answer: 85.3%

Question: What does the source list for `COc1cc2ncnc(N3CCN(C(=O)Nc4ccc(Oc5ccccc5)cc4)CC3)c2cc1OC`?
Answer: residual activity (ADRBK1 (human)): 96.7%; residual activity (AKT1 (human)): 93.7%; residual activity (CDC42BPA (human)): 95.4%; residual activity (CDK2 CCNE1 (human)): 92.1%; residual activity (CDK3 CCNE1 (human)): 82%; residual activity (CDK7 CCNH MNAT1 (human)): 103%; residual activity (CHEK1 (human)): 99.4%; residual activity (CSNK1G2 (human)): 94.6%; residual activity (EPHA2 (human)): 95.7%; residual activity (EPHA4 (human)): 93.2%; residual activity (EPHA8 (human)): 92.5%; residual activity (FGFR1 (human)): 89.6%; residual activity (FYN (human)): 112%; residual activity (GSK3A (human)): 95.8%; residual activity (HIPK1 (human)): 96.9%; residual activity (HIPK2 (human)): 82.8%; residual activity (ITK (human)): 88.1%; residual activity (LTK (human)): 89.8%; residual activity (MAP2K1 (human)): 91.2%; residual activity (MAP4K4 (human)): 88.4%; residual activity (MST4 (human)): 95.4%; residual activity (MYLK (human)): 101%; residual activity (NUAK2 (human)): 77.4%; residual activity (PAK7 (human)): 96.8%; residual activity (PKN2 (human)): 99.1%; residual activity (PRKACA (human)): 96%; residual activity (PRKCD (human)): 84.3%; residual activity (PRKD1 (human)): 102%; residual activity (PRKD2 (human)): 91.9%; residual activity (PRKD3 (human)): 97.5%; residual activity (PTK6 (human)): 95.2%; residual activity (RIPK2 (human)): 93.7%; residual activity (RPS6KB1 (human)): 89.4%; residual activity (SGK3 (human)): 97.6%; residual activity (STK10 (human)): 97.9%; residual activity (STK11 (human)): 105%; residual activity (STK16 (human)): 94.2%; residual activity (STK17A (human)): 85.5%; residual activity (STK25 (human)): 100%; residual activity (TAOK2 (human)): 96.3%; residual activity (TAOK3 (human)): 95.3%; residual activity (YES1 (human)): 106%

Question: Which results are given for `COc1cc2ncc(-c3ccccc3)nc2cc1OC`?
Answer: residual activity (ADRBK1 (human)): 95.8%; residual activity (AKT1 (human)): 99.2%; residual activity (CDC42BPA (human)): 85.4%; residual activity (CDK2 CCNE1 (human)): 85.4%; residual activity (CDK3 CCNE1 (human)): 83.8%; residual activity (CDK7 CCNH MNAT1 (human)): 109%; residual activity (CHEK1 (human)): 94.7%; residual activity (CSNK1G2 (human)): 84%; residual activity (EPHA2 (human)): 102%; residual activity (EPHA4 (human)): 99.3%; residual activity (EPHA8 (human)): 93.1%; residual activity (FGFR1 (human)): 92.9%; residual activity (FYN (human)): 100%; residual activity (GSK3A (human)): 97.9%; residual activity (HIPK1 (human)): 93.4%; residual activity (HIPK2 (human)): 78.7%; residual activity (ITK (human)): 97.8%; residual activity (LTK (human)): 97.9%; residual activity (MAP2K1 (human)): 97.6%; residual activity (MAP4K4 (human)): 62.1%; residual activity (MST4 (human)): 109%; residual activity (MYLK (human)): 97.4%; residual activity (NUAK2 (human)): 133%; residual activity (PAK7 (human)): 85.6%; residual activity (PKN2 (human)): 88.3%; residual activity (PRKACA (human)): 99.4%; residual activity (PRKCD (human)): 82.2%; residual activity (PRKD1 (human)): 93.3%; residual activity (PRKD2 (human)): 93.8%; residual activity (PRKD3 (human)): 91.1%; residual activity (PTK6 (human)): 80.8%; residual activity (RIPK2 (human)): 90.3%; residual activity (RPS6KB1 (human)): 89%; residual activity (SGK3 (human)): 89.7%; residual activity (STK10 (human)): 89.6%; residual activity (STK11 (human)): 86.8%; residual activity (STK16 (human)): 93.5%; residual activity (STK17A (human)): 95.5%; residual activity (STK25 (human)): 90.7%; residual activity (TAOK2 (human)): 95.9%; residual activity (TAOK3 (human)): 88.9%; residual activity (YES1 (human)): 96.1%

Question: Which results are given for `Cn1nc2c3c(cccc31)C(=O)c1ccccc1-2`?
Answer: residual activity (ADRBK1 (human)): 103%; residual activity (AKT1 (human)): 99.1%; residual activity (CDC42BPA (human)): 106%; residual activity (CDK2 CCNE1 (human)): 89.4%; residual activity (CDK3 CCNE1 (human)): 87.5%; residual activity (CDK7 CCNH MNAT1 (human)): 98.8%; residual activity (CHEK1 (human)): 93.7%; residual activity (CSNK1G2 (human)): 91.5%; residual activity (EPHA2 (human)): 104%; residual activity (EPHA4 (human)): 104%; residual activity (EPHA8 (human)): 99.4%; residual activity (FGFR1 (human)): 99.5%; residual activity (FYN (human)): 93.8%; residual activity (GSK3A (human)): 91.1%; residual activity (HIPK1 (human)): 112%; residual activity (HIPK2 (human)): 105%; residual activity (ITK (human)): 88.3%; residual activity (LTK (human)): 86.7%; residual activity (MAP2K1 (human)): 86.3%; residual activity (MAP4K4 (human)): 85.1%; residual activity (MST4 (human)): 108%; residual activity (MYLK (human)): 77.4%; residual activity (NUAK2 (human)): 85.7%; residual activity (PAK7 (human)): 102%; residual activity (PKN2 (human)): 97.3%; residual activity (PRKACA (human)): 104%; residual activity (PRKCD (human)): 92.3%; residual activity (PRKD1 (human)): 69.3%; residual activity (PRKD2 (human)): 77%; residual activity (PRKD3 (human)): 65.5%; residual activity (PTK6 (human)): 91.8%; residual activity (RIPK2 (human)): 75.7%; residual activity (RPS6KB1 (human)): 96.3%; residual activity (SGK3 (human)): 107%; residual activity (STK10 (human)): 94.5%; residual activity (STK11 (human)): 87.7%; residual activity (STK16 (human)): 83.3%; residual activity (STK17A (human)): 83.7%; residual activity (STK25 (human)): 96.5%; residual activity (TAOK2 (human)): 104%; residual activity (TAOK3 (human)): 87.6%; residual activity (YES1 (human)): 94.5%
